The values that follow come from patent US20260034135A1, “USE OF N6-BENZYLAMINOPURINE AS AN APPETITE SUPPRESSANT” (THE GOVERNING COUNCIL OF THE UNIVERSITY OF TORONTO, priority 2022, published 2026).

Assay [1] in a line: BAP in the drinking water in CD-1 mice: body weight and water intake. In kind it is in vivo. How it is done:
(§1) All protocols using mice were approved by the University Animal Care Committee of the University of Toronto and were performed in accordance with the Canadian Council on Animal Care. Animal experiments were performed in three separate animal facilities: Medical Sciences Building (MSB), Centre for Cellular and Biomolecular Research (CCBR) and the Biological Sciences Facility (BSF) due to ongoing construction and housing changes. Facilities and dates are indicated in each experimental cohort. N6-benzylaminopurine (BAP; also called N6-benzyladenine) was obtained from Sigma (B3408, cell culture grade in powder form; CAS number 1214-39-7). Male and female CD-1 mice aged 6-7 weeks were acquired from Charles Rivers and acclimated on a chow diet for one week prior to experimentation. Mice were then weight-matched and placed on either a 60% high fat diet (HFD) or sucrose-matched control diet for 4 weeks (from Research Diets: 60% HFD D12492 and the sucrose-matched control diet […]). After 3 weeks on the diet, mice were acclimated for one week to the drinking apparatus, a 50 mL canonical tube with a drinking tube. After 4 weeks on the diet, the mice were again weight-matched and randomly assigned to either the control or BAP group. […] The average dosages achieved using this method are as follows: male HFD (200 mg/kg/day), male control (157 mg/kg/day), female HFD (189 mg/kg/day), and female control (129.9 mg/kg/day). The mice were exposed continuously to the solutions for a total of 33 days. One week prior to the end of the experiment (day 28), the mice were fasted for 4 hr and underwent intraperitoneal insulin tolerance testing (ITT). After 33 days, the mice were sacrificed, and their tissues were collected. RNA was isolated from the collected hypothalamic and used to quantify gene expression via qRT-PCR.

Assay [2] in a line: Peripheral fat mass by Bruker scan. Type of assay: in vivo, CD-1 mice. The conditions noted are these: male CD-1, HFD, BAP emulsion 11 days, Bruker scan before and after. An excerpt:
Male and female CD-1 mice were received at age 6-7 weeks and were acclimated on a chow diet for one week prior to experimentation. After acclimation to the facility, mice were switched to a 60% HFD. The male and female mice received HFD for 4 (male) and 5 or 16 (female) weeks prior to BAP exposure. The mice were then acclimated to the emulsion feeding protocol for 4 days prior to the start of BAP exposure using the method described in Kuster et al. (12). Two days prior to the start of the exposure period, a cohort of male mice underwent acute general anesthetic with isoflurane for baseline Bruker scanning to quantify peripheral fat mass. The mice were then weight-matched and randomly assigned to either the control or BAP group. During the exposure period, mice were restrained via scruffing (held at back of neck) and fed 200 μL of an emulsion containing 0.5% carboxymethyl cellulose and 50% honey with or without BAP at 2 hr prior to lights off at the facility daily.
The BAP concentrations were calibrated weekly to achieve a dosage of 300 mg/kg/day. All mice were kept on the 60% HFD throughout the exposure period. […] Hypothalamic collected from the mice were then used to isolate RNA and quantify gene expression using quantitative reverse transcription polymerase chain reaction (qRT-PCR).

A short description of assay [3]: Intraperitoneal insulin tolerance test (ITT). In kind it is in vivo, CD-1 mice. As for the experimental part: as §1, with “qRT-PCR. Male mice were placed on a 60% HFD for 8 weeks prior to the ITT and GTT analyses. At 4 weeks, treatment with BAP or vehicle was introduced on a daily basis in the honey emulsion as described above. The mice were then briefly fasted to determine the response to insulin or glucose. For the intraperitoneal insulin tolerance test (ITT), mice were transferred to clean cages without food and fasted for 4 hours. The mice were weighed after 3 hours of fasting and these weights were used to determine optimal insulin dosage (1 IU/kg). The appropriate amount of insulin was aliquoted. After 4 hours of fasting, blood glucose was measured via tail vein using a standard glucometer. This value was recorded as the 0-minute timepoint. The mice were intraperitoneal injected with their aliquoted amount of insulin and returned to their cage. Blood glucose was measured via tail vein 15, 30, and 60 minutes after insulin injection. Mice were provided with 20% glucose solution and removed from ITT if hypoglycemia was observed. Upon completion of ITT, mice were returned to cages with food and water and monitored for adverse effects.” for “qRT-PCR.”

SMILES strings stand for the structures.

Turning to `c1ccc(CNc2ncnc3nc[nH]c23)cc1` [BAP, N6-benzylaminopurine], the “initial body weight loss” value was found to be 9% in assay [1] (female CD-1, 60% HFD, 10 mM BAP in drinking water (189 mg/kg/day), after 9 days of exposure) and 5% in assay [1] (female CD-1, sucrose-matched control diet, 10 mM BAP in drinking water (129.9 mg/kg/day), after 3 days, quickly regained). In addition, the “body weight less than control group on same diet at end” value in assay [1] (female CD-1, 60% HFD, 10 mM BAP in drinking water, 33 days) was determined as 3 g. Moreover, in assay [1] (female CD-1, sucrose-matched control diet, 10 mM BAP in drinking water, 33 days), the “body weight as percentage of starting weight vs vehicle control” value was “not reduced”. Also, the “peak body weight loss” value in assay [1] (male CD-1, 60% HFD, 10 mM BAP in drinking water (200 mg/kg/day), peak after 13 days of exposure) came out at 18%; in assay [1] (male CD-1, sucrose-matched control diet, 10 mM BAP in drinking water (157 mg/kg/day), peak after 12 days), 9%. Moreover, the “body weight difference, control heavier than BAP group at end of experimental period” value in assay [1] (male CD-1, 60% HFD, 10 mM BAP in drinking water, 33 days) was 11 grams. The “body weight lighter than non-BAP control at end of experimental period” value in assay [1] (male CD-1, sucrose-matched control diet, 10 mM BAP in drinking water, 33 days) is given as 4 g. The net peripheral fat entry in assay [2] is “do not observe any significant changes”. Besides, in assay [2], the “peripheral fat mass percentage” value is on record as “do not observe any significant changes”. Further, in assay [3] (female CD-1, 60% HFD, BAP emulsion, one week prior to sacrifice, 4 hr fast (data not shown)), the “fasting blood glucose with BAP (ITT)” value is recorded as “no significant differences”. Further, the “fasting blood glucose with BAP” value in assay [3] (female CD-1, BAP in drinking water, ITT one week prior to sacrifice, 4 hr fast) is given as “no significant differences”. For the same compound, the “insulin sensitivity (ip insulin tolerance test)” value in assay [3] (female CD-1, HFD, BAP in drinking water, after 28 days of exposure) was “do not exhibit enhanced insulin sensitivity”. Also, in assay [3] (male CD-1, 60% HFD, BAP in drinking water, ITT at day 28, 4 hr fast), the “fasting blood glucose vs HFD without BAP” value was “significantly lower fasting blood glucose levels”. The “insulin sensitivity (blood glucose after ip insulin tolerance test)” value in assay [3] (male CD-1, 60% HFD, after 28 days of daily oral BAP exposure) is on record as “improved glucose tolerance”.
